“And” between values parts separate entries of the source, which are not always exact repeats. Equal entries are not always repeated. Where two headings read alike, the source gives them in different places.
How the values were obtained:
[1] = Cytotoxicity against L6 cells; type: cell-based, rat; conditions: rat
Protocol: (§1) In vitro tests for biological activity of the crude extracts, fractions, sub-fractions and isolated compounds against Trypanosoma brucei rhodesiense (bloodstream trypomastigotes, STIB 900 strain), Trypanosoma cruzi (amastigotes, Tulahuen C4 strain), Leishmania donovani (amastigotes, MHOM-ET-67/L82 strain), Plasmodium falciparum (intraerythrocytic form, NF54 strain) and cytotoxicity test against mammalian L6 cell line from rat skeletal myoblasts were performed according to the established standard protocol. However, only the activity data against Trypanosoma brucei rhodesiense is reported due to the inactivity of the tested substances against other parasites at the concentration tested.

[2] = system: Trypanosoma brucei rhodesiense (bloodstream trypomastigotes, STIB 900 strain); assay: In vitro anti-trypanosomal activity against Tbr; type: cell-based
Protocol: as §1

[3] = system: L6 rat skeletal myoblasts; assay: Cytotoxicity against L6 cells; type: cell-based
Protocol: as §1

[4] = isolated compounds, average of two determinations (a: one replicate), read-out: Cytotoxicity L6 Cells IC50
[5] = isolated compounds, average of two determinations (a: one replicate), read-out: Cytotoxicity L6 Cells IC50 (µg/mL)
[6] = Trypanosoma brucei, isolated compounds, average of two determinations ± absolute deviation, read-out: Tbr (STIB900) IC50
[7] = Trypanosoma brucei, isolated compounds, average of two determinations ± absolute deviation, read-out: Tbr (STIB900) IC50 (µg/mL)
[8] = isolated compounds, average of two determinations ± absolute deviation, read-out: Tbr (STIB900) IC50

CC(=O)[C@H]1CC[C@H]2[C@@H]3CC[C@H]4C[C@H](N)CC[C@]4(C)[C@H]3CC[C@]12C [Compound 6, 3α-dihydroholaphyllamine]
IC50 [1, 4]: 17000 ± 1200 nM
IC50 [1, 5]: 5.38 ± 0.39 µg/mL
IC50 [2, 6]: 1210 ± 750 nM
IC50 [2, 7]: 0.382 ± 0.238 µg/mL

CN[C@H]1CC[C@@]2(C)C(=CC[C@H]3[C@@H]4CC[C@H](C(C)=O)[C@@]4(C)CC[C@@H]32)C1 [Compound 3, 3β-N-methylholaphyllamine]
IC50 [1]: 0.829 µg/mL and 2.48 µM
IC50 [2, 6]: 80 ± 10 nM
IC50 [2, 7]: 0.025 ± 0.001 µg/mL
IC50 [2, 8]: 75 ± 4 nM

C[C@@H]1N=C[C@]23C[C@H](O)[C@H]4[C@@H](CCC5=CC(=O)C=C[C@@]54C)[C@@H]2CC[C@H]13 [Compound 8, holonamine]
IC50 [1]: 21.1 µg/mL and 64.9 µM
IC50 [2, 6]: 8670 ± 2330 nM
IC50 [2, 7]: 2.82 ± 0.76 µg/mL

CC(C)=CCC(=O)O[C@@H]1C[C@H]2[C@@H](CC=C3C[C@@H](N(C)C)CC[C@@]32C)[C@@H]2CC[C@@H]3[C@H](C)N(C)C[C@]312 [Compound 15, holarrhetine]
IC50 [1]: 45.8 µg/mL and 97.7 µM
IC50 [2, 6]: 1660 ± 390 nM
IC50 [2, 7]: 0.777 ± 0.182 µg/mL

COc1cc([C@@H]2c3cc4c(cc3[C@H](O)[C@H]3COC(=O)[C@H]23)OCO4)cc(OC)c1OC [podophyllotoxin, reference compound]
IC50 ([1]; Table 1, Leaves, L6 cells (c: one replicate), read-out: Cytotox. L6 IC50): 0.004 ± 0.001 µg/mL

CN[C@H]1CC[C@@]2(C)C(=CC[C@H]3[C@@H]4CC[C@@H]5[C@H](C)N(C)C[C@@]54[C@H](OC(=O)CC=C(C)C)C[C@@H]32)C1 [Compound 14, holarrhesine]
IC50 [1]: 6.51 µg/mL and 14.3 µM
IC50 [2, 6]: 120 ± 80 nM
IC50 [2, 7]: 0.054 ± 0.038 µg/mL
IC50 [2, 8]: 119 ± 84 nM

C[C@@H]1NC[C@]23CC[C@H]4[C@@H](CC=C5C[C@@H](N(C)C)CC[C@@]54C)[C@@H]2CC[C@H]13 [Compound 11, conessimine]
IC50 [1]: 17.3 µg/mL and 50.4 µM
IC50 [2, 6]: 170 ± 80 nM
IC50 [2, 7]: 0.057 ± 0.028 µg/mL
IC50 [2, 8]: 167 ± 83 nM

CC(=O)N[C@H]1CC[C@@]2(C)C(=CC[C@H]3[C@@H]4CC[C@H](C(C)=O)[C@@]4(C)CC[C@@H]32)C1 [Compound 2, holaphyllamine acetamide]
IC50 [1]: 5.49 µg/mL and 15.4 µM
IC50 [2, 6]: 4800 to 14900 nM
IC50 [2, 7]: 1.73 ± 0.47 µg/mL
IC50 [2, 8]: 4830 ± 1330 nM

C[C@H]1[C@H]2CC[C@H]3[C@@H]4CC=C5C[C@@H](N(C)C)CC[C@]5(C)[C@H]4CC[C@]23CN1C [Compound 13, conessine]
IC50 ([1]; L6 rat skeletal myoblast cells, isolated compounds, average of two determinations (a: one replicate), read-out: Cytotoxicity L6 Cells IC50): 61200 nM
IC50 ([1]; L6 rat skeletal myoblast cells, isolated compounds, average of two determinations (a: one replicate), read-out: Cytotoxicity L6 Cells IC50 (µg/mL)): 21.8 µg/mL
IC50 [2, 6]: 420 ± 90 nM
IC50 [2, 7]: 0.149 ± 0.031 µg/mL
IC50 [2, 8]: 419 ± 87 nM

CN[C@H]1CC[C@@]2(C)C(=CC[C@H]3[C@@H]4CC[C@@H]5[C@H](C)N(C)C[C@@]54[C@H](O)C[C@@H]32)C1 [Compound 16, holarrheline]
IC50 [1]: 64.8 µg/mL and 181 µM
IC50 [2, 6]: 8210 ± 1030 nM
IC50 [2, 7]: 2.94 ± 0.37 µg/mL

C[C@H]1[C@H]2CC[C@H]3[C@@H]4C(=O)C=C5C=CCC[C@]5(C)[C@H]4CC[C@]23CN1C [Compound 10, cona-3,5-dienin-7-one]
IC50 [1, 4]: 41700 ± 18900 nM
IC50 [1, 5]: 13.6 ± 6.2 µg/mL
IC50 [2, 6]: 7370 ± 940 nM
IC50 [2, 7]: 2.4 ± 0.3 µg/mL

CC(=O)[C@H]1CC[C@H]2[C@@H]3CC=C4C[C@@H](N)CC[C@]4(C)[C@H]3CC[C@]12C [Compound 1, 3β-holaphyllamine]
IC50 [1]: 1.61 µg/mL and 5.1 µM
IC50 [2, 7]: 0.127 ± 0.088 µg/mL
IC50 [2, 8]: 400 ± 280 nM

CC(=O)[C@H]1CC[C@H]2[C@@H]3CC[C@H]4C[C@@H](N)CC[C@]4(C)[C@H]3CC[C@]12C [Compound 5, 3β-dihydroholaphyllamine]
IC50 [1, 4]: 17400 ± 1360 nM
IC50 [1, 5]: 5.51 ± 0.43 µg/mL
IC50 [2, 6]: 670 ± 30 nM
IC50 [2, 7]: 0.213 ± 0.008 µg/mL
IC50 [2, 8]: 672 ± 27 nM

CC(=O)[C@H]1CC[C@H]2[C@@H]3CC=C4C[C@H](N)CC[C@]4(C)[C@H]3CC[C@]12C [Compound 4, 3α-holaphyllamine]
IC50 [1]: 5 µg/mL and 15.9 µM
IC50 [2, 6]: 370 ± 159 nM
IC50 [2, 7]: 0.117 ± 0.05 µg/mL

C[C@H]1[C@H]2CC[C@H]3[C@@H]4C=CC5=CC(=O)CC[C@]5(C)[C@H]4CC[C@]23CN1C [Compound 9, cona-4,6-dienin-3-one]
IC50 [1]: 41.9 µg/mL and 129 µM
IC50 [2, 6]: 17500 ± 200 nM
IC50 [2, 7]: 5.69 ± 0.07 µg/mL

N^3-isopentenyl adenine [Compound 19]
Cytotoxicity L6 Cells IC50 [3]: 61.30 ± 4.24 µg/mL
IC50 [3]: 302000 ± 6800 nM
Tbr (STIB900) IC50 ([2]; isolated compounds, average of two determinations ± absolute deviation): 5.03 ± 0.54 µg/mL

C[C@]12C=CC(=O)C=C1CC[C@@H]1[C@@H]2[C@@H](O)C[C@]2(C)C(=O)CC[C@@H]12 [Compound 18, kurchinin]
IC50 [2, 7]: 3.64 ± 0.21 µg/mL

C[C@H]1[C@H]2CC[C@H]3[C@@H]4CCC5=CC(=O)C=C[C@]5(C)[C@H]4CC[C@]23CN1C [Compound 7, holadienine]
IC50 [2, 6]: 14900 ± 2100 nM
IC50 [2, 7]: 4.81 ± 0.68 µg/mL

C[C@H]1[C@H]2CC[C@H]3[C@@H]4CC=C5C[C@@H](N(C)C)CC[C@]5(C)[C@H]4C[C@@H](O)[C@]23CN1C [Compound 17, holarrhenine]
IC50 [1]: 46.4 µg/mL and 125 µM
IC50 [2, 6]: 20900 ± 6000 nM
IC50 [2, 7]: 7.78 ± 2.23 µg/mL

CN[C@H]1CC[C@@]2(C)C(=CC[C@H]3[C@@H]4CC[C@@H]5[C@H](C)N(C)C[C@@]54CC[C@@H]32)C1 [Compound 12, isoconessimine]
IC50 [1]: 9.38 µg/mL and 27.4 µM
IC50 [2, 6]: 170 ± 110 nM
IC50 [2, 7]: 0.056 ± 0.038 µg/mL
IC50 [2, 8]: 166 ± 112 nM

Nc1nc(N)nc(Nc2ccc([As]3SCC(CO)S3)cc2)n1 (stereo not shown) [melarsoprol, reference compound]
IC50 ([2]; Trypanosoma brucei, read-out: Tbr IC50): 0.002 ± 0.001 µg/mL
